Data taken from patent US11242321B2, “Salt forms of organic compound” (KAINOS MEDICINE INC., priority 2018, dated 2022).

Columns and labels:
[1] = Aqueous solubility assessment of salt screen solids (visual); conditions: Ca. 5 mg in up to 4000 μL water (1.25 mg/ml), shaken overnight at 50° C.
Protocol: Aqueous solubility assessment was performed using Ca. […] These samples were added to aliquots of deionized water up to a maximum of 4000 μL with the samples being shaken between additions to encourage dissolution prior to a visual inspection.

[2] = Aqueous solubility, 24 h shake, gravimetric; type: physicochemical; conditions: thermodynamic from solid, deionized water
Protocol: Ca. 50 mg of each of the salts were weighed into a 2 mL HPLC vial prior to the addition of 1 mL of deionized water. […] The experiment was also repeated at 50° C.

FaSSIF/FeSSIF solubility = type: physicochemical; conditions: thermodynamic from solid, shaken 24 h at 37° C.
Protocol: Ca. 25 mg of each of the salts were weighed into a 2 mL HPLC vial prior to the addition of 1 mL of Fasting State Simulated Intenstinal Fluid (FaSSIS) solution. […] The experiment was also repeated using Fed State Simulated Intestinal Fluid (FeSSIF) solution.

[3] = Stability at 40° C./75% RH; type: physicochemical
pH1 stability = type: physicochemical; conditions: pH 1 buffer, 4 h at 37° C.
Protocol: Ca. 25 mg of each of the salts were weighed into a 2 mL HPLC vial prior to the addition of 1 mL of pH 1 buffer. The samples were then shaken for 4 h at 37° C. before being filtered into SPE cartridges and dried overnight.

pH of saturated solution = type: physicochemical; conditions: saturated solution in deionized water, room temperature
Protocol: A saturated solution of each of the salts was prepared in 5 mL of deionized water at room temperature prior to analysis.

[4] = Dynamic vapor sorption (DVS); type: physicochemical
Protocol: SMS DVS Intrinsic dynamic vapour sorption instrument using DVS-Intrinsic control software v1.0.6.0. Analysis of the data was performed using the DVS analysis suite v7.0.13.1 macro program embedded in Microsoft Excel. Analysis was performed as a wt % change from 0-90% RH with isothermal plots also being examined.
Ca. 10-15 mg of sample was weighed into a stainless steel DVS basket before submitting for analysis. The samples were analysed over the range of 0-90% RH with a maximum time of 6 hours per humidity stage. Each sample was exposed to a double cycle. XRPD analysis of all samples was performed post-DVS.

In the case of `O=C(CSc1ccc(Br)cc1)Nc1cn(CCc2ccccc2)nc1C(=O)[O-].[Na+]` [sodium salt, 4-(2-((4-bromophenyl)thio)acetamido)-1-phenethyl-1H-pyrazole-3-carboxylic Acid Sodium Salt], the “Solubility assessment (dissolution in deionized water), salt from DIPE” value ([1]; salt prepared from DIPE) is reported as “Complete”, the “Solubility assessment (dissolution in deionized water), salt From Ethanol” value ([1]; salt prepared from ethanol) is reported as “Complete” and the solubility at 24 h ([2]; shaken 24 h at 25° C., read-out: Aqueous solubility @ 25° C.) is reported as 2300 µg/mL. For the same molecule, the solubility at 24 h ([2]; shaken 24 h at 50° C.) was 2400 µg/mL, the solubility at 24 h (FaSSIF/FeSSIF solubility; FaSSIF, read-out: FaSSIF solubility @ 37° C.) was 4000 µg/mL and the solubility at 24 h (FaSSIF/FeSSIF solubility; FeSSIF, read-out: FeSSIF solubility @ 37° C.) was 3800 µg/mL. The “Observation post stability (40° C./75% RH)” value [3] was “No visible change”, the “XRPD post stability (40° C./75% RH)” value [3] was “Crystalline - no change in form” and the “Chemical purity post stability (40° C./75% RH)” value ([3]; HPLC) was >99.9% (by peak area). The “Observations post stability (pH 1 for 4 h)” value (pH1 stability) was “No visual change”, the “XRPD post stability (pH 1 for 4 h)” value (pH1 stability) was “Partially crystalline: change in crystalline” and the “Chemical purity post stability (pH 1 for 4 h)” value (pH1 stability; HPLC) was >99.9% (by peak area). For the same molecule, the “1H NMR post stability (pH 1 for 4 h)” value (pH1 stability; cell continues: salt form is no longer present) was “No chemical shifts, indicating that salt form”, the “pH of rm temp sat'd sol'n” value (pH of saturated solution) was 10.31 and the “DVS mass increase between 0-90% RH, first cycle” value ([4]; 0-90% RH, first cycle) was “Ca. 11.7% mass increase between 0-90% RH on”. The “XRPD post DVS” value ([4]; after double cycle 0-90% RH) was “Crystalline - no change in form”.
